Measurements: patent US8952157B2, “Apoptosis-inducing agents for the treatment of cancer and immune and autoimmune diseases” (AbbVie Inc., priority 2008, dated 2015)
pKi: −log10 of the molar value.

Target: GST-Bcl-2 (Homo sapiens (Human), UniProt P10415)
Experiment: Time Resolved-Fluorescence Resonance Energy Transfer (TR-FRET) Bcl-2 binding assay
Details: GST-Bcl-2 1 nM, F-Bak peptide probe 100 nM, Tb-anti-GST antibody 1 nM; Ki by Wang's equation
Procedure, shortened: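 Ki values derived from TR-FRET displacement of F-Bak peptide from GST-Bcl-2, detected with Tb-labelled anti-GST antibody (ex 340, em 520/495 nm). Compound dilution series started at 50 μM (2× starting concentration); room-temperature incubation 3 hours.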

Sequence of GST-Bcl-2 (P10415 whole entry): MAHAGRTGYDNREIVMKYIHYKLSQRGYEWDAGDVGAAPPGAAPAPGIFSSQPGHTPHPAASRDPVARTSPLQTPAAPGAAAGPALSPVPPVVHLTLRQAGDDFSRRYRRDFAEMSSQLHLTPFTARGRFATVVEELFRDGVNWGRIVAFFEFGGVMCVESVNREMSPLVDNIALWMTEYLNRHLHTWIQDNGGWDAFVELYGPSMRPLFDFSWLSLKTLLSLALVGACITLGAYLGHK

Structure (SMILES) | pKi
CC1(C)CCC(CN2CCN(c3ccc(C(=O)NS(=O)(=O)c4ccc(N[C@@H]5CCN(CC(F)F)C5)c([N+](=O)[O-])c4)c(Oc4cnc(N)c(Cl)c4)c3)CC2)=C(c2ccc(Cl)cc2)C1 [Example 353, 2-[(6-amino-5-chloropyridin-3-yl)oxy]-4-(4-{[2-(4-chlorophenyl)-4,4-dimethylcyclohex-1-en-1-yl]methyl}piperazin-1-yl)-N-[(4-{[(3R)-1-(2,2-difluoroethyl)pyrrolidin-3-yl]amino}-3-nitrophenyl)sulfonyl]benzamide] | 10.80
CC1(C)CCC(CN2CCN(c3ccc(C(=O)NS(=O)(=O)c4ccc(NCC5(N)CCOCC5)c([N+](=O)[O-])c4)c(Oc4cc5cc[nH]c5cc4F)c3)CC2)=C(c2ccc(Cl)cc2)C1 [Example 248, N-[(4-{[(4-aminotetrahydro-2H-pyran-4-yl)methyl]amino}-3-nitrophenyl)sulfonyl]-4-(4-{[2-(4-chlorophenyl)-4,4-dimethylcyclohex-1-en-1-yl]methyl}piperazin-1-yl)-2-[(6-fluoro-1H-indol-5-yl)oxy]benzamide] | 10.29
CC1(C)CCC(CN2CCN(c3ccc(C(=O)NS(=O)(=O)c4ccc(NC5CCN(C6CCCC6)CC5)c([N+](=O)[O-])c4)c(Oc4cccc(Cl)c4)c3)CC2)=C(c2ccc(Cl)cc2)C1 [Example 130, 2-(3-chlorophenoxy)-4-(4-{[2-(4-chlorophenyl)-4,4-dimethylcyclohex-1-en-1-yl]methyl}piperazin-1-yl)-N-({4-[(1-cyclopentylpiperidin-4-yl)amino]-3-nitrophenyl}sulfonyl)benzamide] | 10.17
CC1(C)CCC(CN2CCN(c3ccc(C(=O)NS(=O)(=O)c4ccc(NC5CCN(CC6CC6)CC5)c([N+](=O)[O-])c4)c(Oc4cc5cc[nH]c5cc4F)c3)CC2)=C(c2ccc(Cl)cc2)C1 [Example 236, 4-(4-{[2-(4-chlorophenyl)-4,4-dimethylcyclohex-1-en-1-yl]methyl}piperazin-1-yl)-N-[(4-{[1-(cyclopropylmethyl)piperidin-4-yl]amino}-3-nitrophenyl)sulfonyl]-2-[(6-fluoro-1H-indol-5-yl)oxy]benzamide] | 10.15
CC1(C)CCC(CN2CCN(c3ccc(C(=O)NS(=O)(=O)c4ccc(NCC5CCOCC5)c([N+](=O)[O-])c4)c(Oc4ccc(NCC(F)F)nc4)c3)CC2)=C(c2ccc(Cl)cc2)C1 [Example 376, 4-(4-{[2-(4-chlorophenyl)-4,4-dimethylcyclohex-1-en-1-yl]methyl}piperazin-1-yl)-2-({6-[(2,2-difluoroethyl)amino]pyridin-3-yl}oxy)-N-({3-nitro-4-[(tetrahydro-2H-pyran-4-ylmethyl)amino]phenyl}sulfonyl)benzamide] | 7.24
CN(C)CCCNc1ccc(S(=O)(=O)NC(=O)c2ccc(N3CCN(Cc4ccccc4-c4ccc(Cl)cc4)CC3)cc2Oc2cccc(Cl)c2)cc1[N+](=O)[O-] [Example 14, 4-(4-((4′-chloro-1,1′-biphenyl-2-yl)methyl)piperazin-1-yl)-2-(3-chlorophenoxy)-N-((4-((3-(dimethylamino)propyl)amino)-3-nitrophenyl)sulfonyl)benzamide] | 10.10
CC(C)(C)OC(=O)N1CCN(c2cccc(Oc3cc(N4CCN(Cc5ccccc5-c5ccc(Cl)cc5)CC4)ccc3C(=O)NS(=O)(=O)c3ccc(NCC4CCOCC4)c([N+](=O)[O-])c3)c2)CC1 [Example 91, tert-butyl 4-(3-(5-(4-((4′-chloro-1,1′-biphenyl-2-yl)methyl)piperazin-1-yl)-2-((((3-nitro-4-((tetrahydro-2H-pyran-4-ylmethyl)amino)phenyl)sulfonyl)amino)carbonyl)phenoxy)phenyl)piperazine-1-carboxylate] | < 5.92
CC1(C)CCC(CN2CCN(c3ccc(C(=O)NS(=O)(=O)c4ccc(NCC5CCOCC5)c([N+](=O)[O-])c4)c(Oc4cnc(N)c(F)c4)c3)CC2)=C(c2ccc(Cl)cc2)C1 [Example 302, 2-[(6-amino-5-fluoropyridin-3-yl)oxy]-4-(4-{[2-(4-chlorophenyl)-4,4-dimethylcyclohex-1-en-1-yl]methyl}piperazin-1-yl)-N-({3-nitro-4-[(tetrahydro-2H-pyran-4-ylmethyl)amino]phenyl}sulfonyl)benzamide] | > 11.00
CN1CCC(Nc2ccc(S(=O)(=O)NC(=O)c3ccc(N4CCN(CC5=C(c6ccc(Cl)cc6)CC(C)(C)CC5)CC4)cc3Oc3cccc(Cl)c3)cc2S(=O)(=O)C(F)(F)F)CC1 [Example 131, 2-(3-chlorophenoxy)-4-(4-{[2-(4-chlorophenyl)-4,4-dimethylcyclohex-1-en-1-yl]methyl}piperazin-1-yl)-N-({4-[(1-methylpiperidin-4-yl)amino]-3-[(trifluoromethyl)sulfonyl]phenyl}sulfonyl)benzamide] | 10.18
CN(C)CCc1ccccc1Oc1cc(N2CCN(Cc3ccccc3-c3ccc(Cl)cc3)CC2)ccc1C(=O)NS(=O)(=O)c1ccc(NCC2CCOCC2)c([N+](=O)[O-])c1 [Example 29, 4-(4-((4′-chloro-1,1′-biphenyl-2-yl)methyl)piperazin-1-yl)-2-(2-(2-(dimethylamino)ethyl)phenoxy)-N-((3-nitro-4-((tetrahydro-2H-pyran-4-ylmethyl)amino)phenyl)sulfonyl)benzamide] | 9.04
O=C(NS(=O)(=O)c1ccc(NCC2CCOCC2)c([N+](=O)[O-])c1)c1ccc(N2CCN(Cc3ccccc3-c3ccc(Cl)cc3)CC2)cc1Oc1ccc(OCc2ccccc2)cc1 [Example 88, 2-(4-(benzyloxy)phenoxy)-4-(4-((4′-chloro-1,1′-biphenyl-2-yl)methyl)piperazin-1-yl)-N-((3-nitro-4-((tetrahydro-2H-pyran-4-ylmethyl)amino)phenyl)sulfonyl)benzamide] | < 5.92
CC1(C)CCC(CN2CCN(c3ccc(C(=O)NS(=O)(=O)c4ccc(NCC5CCOCC5)c([N+](=O)[O-])c4)c(Oc4cc(N)cc(Cl)c4)c3)CC2)=C(c2ccc(Cl)cc2)C1 [Example 309, 2-(3-amino-5-chlorophenoxy)-4-(4-{[2-(4-chlorophenyl)-4,4-dimethylcyclohex-1-en-1-yl]methyl}piperazin-1-yl)-N-({3-nitro-4-[(tetrahydro-2H-pyran-4-ylmethyl)amino]phenyl}sulfonyl)benzamide] | 9.16
Cc1ccccc1Oc1cc(N2CCN(CC3=C(c4ccc(Cl)cc4)CC(C)(C)CC3)CC2)ccc1C(=O)NS(=O)(=O)c1ccc(NC2CCN(C)CC2)c([N+](=O)[O-])c1 [Example 181, 4-(4-{[2-(4-chlorophenyl)-4,4-dimethylcyclohex-1-en-1-yl]methyl}piperazin-1-yl)-2-(2-methylphenoxy)-N-({4-[(1-methylpiperidin-4-yl)amino]-3-nitrophenyl}sulfonyl)benzamide] | 9.92
CN1CCN(Nc2ccc(S(=O)(=O)NC(=O)c3ccc(N4CCN(CC5=C(c6ccc(Cl)cc6)CC(C)(C)CC5)CC4)cc3Oc3cnc(N)c(Cl)c3)cc2[N+](=O)[O-])CC1 [Example 343, 2-[(6-amino-5-chloropyridin-3-yl)oxy]-4-(4-{[2-(4-chlorophenyl)-4,4-dimethylcyclohex-1-en-1-yl]methyl}piperazin-1-yl)-N-({4-[(4-methylpiperazin-1-yl)amino]-3-nitrophenyl}sulfonyl)benzamide] | 11.05
